{
  "source": "patent US20090048214A1",
  "about": "“Methods for Treating Renal Tumors Using 2, 4-Pyrimidinediamine Drug and Prodrug Compounds” (RIGEL PHARMACEUTICALS, INC, priority 2006, published 2009)",
  "key": {"[1]": {"conditions": "detailed in US2006/0211657 A1; cited from earlier work"}, "[2]": {"system": "A498 renal carcinoma cells", "assay": "A498 renal carcinoma subcutaneous xenograft study", "assay_type": "in vivo, NCR nu/nu female mice", "procedure": "NCR nu/nu female mice (8-9 weeks old, Harlan Laboratories, Madison, Wis.) were injected subcutaneously on the right hind flank with 5×10^7 A498 renal carcinoma cells in a 50:50 mixture of cells in PBS and Matrigel® (Cat# 356234, LDEV negative, BD Biosciences, Boston, Mass.). Tumor growth was determined by measuring the tumor in two dimensions (L×W) with electronic calipers (Ultra Cal IV, Fred V Fowler Co, Newton, Mass.). Volume was calculated using Study Director Animal Study Management Software (Studylog Systems, South San Francisco, Calif.) as follows: V=(L×W^2)/2,where L and W are the tumor length and width, respectively. Animals were randomized by stratified tumor size and treatment was initiated when the average tumor size was approximately 82 mm^3 (Study Day 0, 17 days post-injection). Test compound was administered ad libitum in the feed as a formulation of 0, 0.5, 2, or 3 g Compound A per kg of AIN-76A rodent diet (Research Diets, Inc, New Brunswick, N.J.). Animals were weighed and tumors measured twice weekly from the day of cell injection to study termination."}, "[3]": {"system": "RXF-393 kidney tumor fragments", "assay": "RXF-393 renal carcinoma orthotopic xenograft study", "assay_type": "in vivo, Nu/nu mice", "conditions": "for median tumor weight: following 16 days of treatment, vehicle 485 mg", "procedure": "RXF-393 kidney tumor fragments were implanted intrarenally into Nu/nu mice. On days 5-20 post-implantation animals were fed the Research Diet chow containing Compound A at the following dose levels: 0 g/kg (control), 0.5 g/kg (expected dose 75 mg/kg/day), 2.0 g/kg (expected dose 300 mg/kg/day), or 3.0 g/kg (expected dose 450 mg/kg/day). Tumors were allowed to grow orthotopically, body weights were measured twice weekly, and the animals were sacrificed on Day 23. Both the implanted kidney and the unimplanted kidney were weighed, and the tumor weight is expressed as the difference in kidney weights for each animal."}},
  "data": [
    {"smiles": "COc1cc(Nc2ncc(F)c(Nc3ccc4c(n3)N(COP(=O)(O)O)C(=O)C(C)(C)O4)n2)cc(OC)c1OC", "note": "[Compound A]", "values": [
      {"measurement": "metabolism of prodrug in vivo", "setting": "[1]", "result": "metabolize in vivo to the corresponding active 2,4-pyrimidinediamine compound, Compound 1"},
      {"measurement": "Mean body weights", "setting": "[2]; 0, 0.5, 2.0, 3.0 g Compound A/kg feed groups", "result": "not different among the groups"},
      {"measurement": "effect on tumor growth, dose dependence", "setting": "[2]; 0.5, 2.0, 3.0 g Compound A/kg feed", "result": "dose-dependent effect on tumor growth was observed"},
      {"measurement": "%T/C", "setting": "[2]; 2.0 g Compound A/kg feed, Day 23", "result": 62, "unit": "%"},
      {"measurement": "mean tumor volume", "setting": "[2]; 2.0 g Compound A/kg feed, by Day 23, control 665, p>0.05", "result": 485, "unit": "mm^3"},
      {"measurement": "mean tumor volume", "setting": "[2]; 3.0 g Compound A/kg feed ad libitum, after 24 days of treatment, vehicle 665, p<0.05", "result": 372, "unit": "mm^3"},
      {"measurement": "median change in tumor volume, treated relative to control (% T/C)", "setting": "[2]; 3.0 g Compound A/kg feed, after 24 days of treatment", "result": 35, "unit": "%"},
      {"measurement": "reduction in tumor weight vs vehicle", "setting": "[3]; high (3 g/kg) and mid (2 g/kg) dose groups, 16 days of treatment", "result": "~10", "unit": "fold"},
      {"measurement": "median tumor weight", "setting": "[3]; high dose 3 g/kg food (450 mg/kg/dose), p<0.0001", "result": 63, "unit": "mg"},
      {"measurement": "reduction in median tumor weight compared with vehicle", "setting": "[3]; low dose group (75 mg/kg/dose, 0.5 g Compound A/kg food)", "result": "approximately 25%"},
      {"measurement": "median tumor weight", "setting": "[3]; mid dose 2 g/kg food (300 mg/kg/dose), p<0.0006", "result": 74, "unit": "mg"}
    ]}
  ]
}
